Data published in patent US8642510B2, “Inhibitors for brassinosteroid signalling” (GMI-Gregor Mendel-Institut fuer Molekulare Pflanzenbiologie …, priority 2008, dated 2014).
“Also recorded” adds a separate entry of the source.

Columns and labels:
[1] = HPLC-analysis of plant extracts (fate of compound in planta); assay type: in vivo, A. thaliana; details: seedlings infiltrated, HPLC of extracts after 15 min
Protocol: FIG. 5: Estrified compounds are rapidly hydrolysed in planta. A. thaliana seedlings were infiltrated with ½MS medium containing 50 μM compound 10. Control samples were taken before infiltration (A) and analysed by HPLC. A biotransformation product (marked P) of compound 10 could be observed after 15 min (B). A chromatogram of a mixture of compounds 10, 15, and 17 (labelled with C10, C15 and C17, respectively) is shown for comparison (C). The small boxes inserted into the chromatograms show the UV spectra of the peaks in the range of 220 to 360 nm. mAU, milli absorption units recorded at 250 nm.
Two-week-old A. thaliana Co10 seedlings were vacuum infiltrated with ½MS or ½MS containing […] compound 10 as described previously (Rozhon et al., 2005). After 15 min and after 48 h samples were taken, rinsed with water and ground in liquid nitrogen to a fine powder. 100 mg powder were weighed into a reaction tube and 1 ml extraction buffer (20 mM TRIS/HCl pH6.8 dissolved in 20% acetonitrile) was added. […] The extracts were analysed by HPLC with the same settings as mentioned above.
To investigate these conflicting results, the fate of compound 10 in vivo was investigated. Seedlings were infiltrated with compound 10 and plant extracts subsequently analysed by HPLC. […]

[2] = Cell-permeability assay (uptake by seedlings); assay type: in vivo, A. thaliana; details: 50 μM in medium
Protocol: FIG. 6: Methylation increases tissue-permeability. A. thaliana seedlings were incubated in 50 μM solutions of compounds 10 and 15 in ½MS medium. Samples were taken after the indicated time and the in situ levels of compound 15 analysed by HPLC. The solid line represents the results for plants incubated with compound 10 and the dashed line the results for compound 15. The means and standard deviations were calculated from 3 independent assays.
Two-week-old A. thaliana Co10 seedlings were transferred to ½MS medium containing 50 μM inhibitor. Samples were removed after the indicated time points, rinsed with water, dried with filter paper and frozen in liquid nitrogen. For analysis the plant material was ground to a fine powder in a mortar pre-cooled with liquid nitrogen. […]
The cell-permeability of a substance is an important characteristic influencing its in vivo potency. The uptake of compounds 10 and 15 by plants was determined by treatment of seedlings with solutions of these compounds and subsequent quantification of the internalised inhibitor concentrations (FIG. 6). Since compound 10 is rapidly converted to 15, only the in situ concentration of 15 was measured. […] While 50 μM were present in the medium, in situ concentrations of about 90 μM could be measured in the case of compound 15 and up to 190 μM in the case of application of compound 10.

[3] = tested on: ASKs (A. thaliana GSK-3/Shaggy-like kinases); test: In vitro kinase assay, GST-ASK fusion proteins with MBP and γ-[32P]-ATP; assay type: biochemical, Arabidopsis thaliana; details: compounds at 10 μM; result in words
Protocol: GST-ASK fusion proteins were incubated with MBP as substrate and γ-[32P]-ATP as co-substrate in the absence (−) or presence of different derivatives (the numbers correspond to Table 1). […] The compounds were used at a concentration of 10 μM. The proteins were separated by SDS-PAGE and the incorporated radioactive phosphate detected with a storage phosphor imager screen.
ASKs were expressed as GST-fusion proteins in E. coli BL21. In vitro kinase assays were performed by incubating 50 ng GST-fusion protein, 10 μg myelin basic protein (MBP; Sigma, St Louis, Mo.) as substrate and 0.15 MBq γ-[32P]-ATP as co-substrate at 25° C. for 30 min. The reaction buffer consisted of 20 mM HEPES pH7.4, 15 mM MgCl2, 5 mM EGTA and 1 mM DTT. For initial experiments cold ATP was included at concentrations up to 3 μM. The reaction products were separated by SDS-PAGE and the amount of radioactivity incorporated into MBP quantified using an Amersham storage phosphor imager screen and a Biorad Molecular Imager FX. In vivo kinase activity was detected by phosphorylation band-shift assays using BZR1-CFP as substrate.
Representatives of all groups were expressed as recombinant GST fusion proteins in E. coli.

[4] = tested on: cpd mutant seedlings; test: Physiological test, phenotype rescue of brassinosteroid synthesis mutant cpd; assay type: in vivo, Arabidopsis thaliana; details: 30 μM in medium, 7 days
Protocol: FIG. 3: Effects on the phenotype of brassinosteroid mutants. 7-day-old seedlings of the brassinosteroid synthesis mutant cpd and signalling mutant bri1-1 were transferred to MS medium containing 1 μM epi-brassinolide (Epi-BL) or compounds 10 and 15 at a concentration of 30 μM and incubated for 7 days under long day conditions. All pictures were taken at the same magnification. The bar represents 1 mm.
Arabidopsis thaliana Co10 or bri1-1 seedlings were grown in vitro on ½ MS plates containing 1% sucrose in a growth camber under long day conditions (16 h light with 50 μE·m^−2·s^−1, 8 h dark) for 7 days. Subsequently, they were transferred to plates supplemented with inhibitors at different concentrations and effects on the phenotype were observed 7 days later.
Downregulation of ASK activity is crucial in brassinosteroid signalling. ASKs are constitutively active in cpd and bril-1 mutants, which are defective in brassinosteroid biosynthesis or signalling, respectively. This leads to severely dwarfed plants with dark green downward curled leaves and shortened hypocotyls. […] To screen for in vivo potency, cpd and bril-1 mutants were transferred to media containing 4-[(5-bromo-2-pyridinyl)amino]-4-oxobutanoic acid derivatives at a concentration of 30 μM. […] The potency to rescue the phenotype correlated with the results of the in vitro assay.

COC(=O)CCC(=O)Nc1ccc(I)cn1 [Compound 10, 4-[(5-iodopyrid-2-yl)amino]-4-oxobutanoic acid methyl ester]
Stability in planta (hydrolysis of methyl ester to free acid) [1]: not stable in vivo but rapidly converted; also recorded: rapidly cleaved off | Uptake rate relative to compound 15 [2]: roughly double | Tissue permeability / uptake ([2]; result in words): higher tissue permeability; also recorded: very rapid uptake | Inhibition of ASKs in vitro (MBP phosphorylation) [3]: dramatically reduced inhibitory effects; also recorded: little potency in vitro; also recorded: little or no activity | Rescue of cpd mutant phenotype [4]: highly active in vivo
